Reference: ChEMBL document CHEMBL1201862, “PubChem BioAssay data set” (2004)
Structures can show the parent of a compound that is named as a salt. Active and inactive are the calls of the source.

Columns and labels:
[1] = tested on: P388/ADR; test: cells; format: functional; conditions: Mus musculus
[2] = tested on: SN12K1; test: cells; format: functional; conditions: Homo sapiens
[3] = tested on: P388; test: cells; format: functional; conditions: Mus musculus
[4] = biological target: T1, Short transient receptor potential channel 4 (Mus musculus, UniProt Q9QUQ5); test: mouse TRPC4 channel inhibitors, dose response, cell-based, HEK293 TRPC4/mu-opioid, Fluo-4 calcium (AID 434942); format: functional;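 note: potency of inhibitors blocking the TRPC4 calcium response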
T1 sequence (Q9QUQ5 whole entry): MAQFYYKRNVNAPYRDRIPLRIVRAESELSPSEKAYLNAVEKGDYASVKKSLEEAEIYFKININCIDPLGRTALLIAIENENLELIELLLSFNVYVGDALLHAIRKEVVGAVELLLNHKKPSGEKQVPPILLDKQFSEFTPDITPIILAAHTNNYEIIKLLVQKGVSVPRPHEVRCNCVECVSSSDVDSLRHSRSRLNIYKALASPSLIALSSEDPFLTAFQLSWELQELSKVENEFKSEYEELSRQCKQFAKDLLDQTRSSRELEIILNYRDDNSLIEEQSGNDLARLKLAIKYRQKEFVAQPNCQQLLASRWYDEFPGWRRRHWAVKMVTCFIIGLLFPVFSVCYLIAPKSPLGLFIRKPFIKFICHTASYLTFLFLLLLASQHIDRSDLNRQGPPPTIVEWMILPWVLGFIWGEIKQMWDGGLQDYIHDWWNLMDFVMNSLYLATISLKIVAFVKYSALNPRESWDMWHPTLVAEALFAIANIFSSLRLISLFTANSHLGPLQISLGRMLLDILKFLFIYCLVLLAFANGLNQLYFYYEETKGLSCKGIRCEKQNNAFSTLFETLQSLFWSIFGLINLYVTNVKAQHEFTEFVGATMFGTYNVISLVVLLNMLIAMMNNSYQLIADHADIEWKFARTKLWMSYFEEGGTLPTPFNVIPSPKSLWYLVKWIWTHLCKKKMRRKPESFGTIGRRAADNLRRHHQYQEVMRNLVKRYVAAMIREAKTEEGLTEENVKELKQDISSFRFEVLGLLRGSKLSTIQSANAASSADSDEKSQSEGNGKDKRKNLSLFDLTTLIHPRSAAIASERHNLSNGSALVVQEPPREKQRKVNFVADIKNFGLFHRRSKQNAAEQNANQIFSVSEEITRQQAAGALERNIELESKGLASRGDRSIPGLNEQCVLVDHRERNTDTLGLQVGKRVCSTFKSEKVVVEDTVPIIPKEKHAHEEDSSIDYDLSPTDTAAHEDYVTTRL

[5] = cells; format: functional, cell-based
[6] = cells; format: functional, cell-based; remark: listed apart in the source
[7] = inhibitors of intracellular T. cruzi replication, confirmation, NIH3T3 host cells, beta-gal luminescence (AID 2044); format: functional, cell-based;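 note: intracellular parasites grown in NIH/3T3 mouse fibroblasts as host cells; luminescent beta-galactosidase reporter signal from transgenic T. cruzi replicating inside host cells; inhibitors lower the luminescence signal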
[8] = cytotoxicity toward NIH3T3 fibroblasts, dose response, counter-screen, cell-based, ATP luminescence, mouse fibroblasts (AID 2010); format: functional;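 note: cells exposed to compound for about 90 hours before reading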
[9] = biological target: Fatty acid synthase (Homo sapiens, UniProt P49327); test: FAS thioesterase domain inhibitors, dose response, biochemical, kinetic fluorescence intensity (AID 624326); format: functional;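 note: rate of fluorescence rise from hydrolysis of a fluorogenic O-methyl fluorescein ester substrate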
[10] = Luminescence Cell-Based Dose Confirmation HTS to Identify Activators of 5'UTR Stem-Loop Driven Alpha-Synuclein mRNA Translation in H4 Neuroglioblastoma Cells. [Related pubchem assays: 1829 (Project Summary), 1814 (Primary HTS)]; format: functional
[11] = Luminescence Cell-Based Dose Response HTS to Identify Activators of Luciferase Translation or Activity in H4 […] Cells. [Related pubchem assays: 1829 (Project Summary), 1814 (Primary HTS)]; format: functional
[12] = tested on: H4; test: Luminescence Cell-Based Dose Response HTS to Identify Activators of 5'UTR Stem-Loop Driven Prion Protein mRNA Translation in H4 Neuroglioblastoma Cells. [Related pubchem assays: 1829 (Project Summary), 1814 (Primary HTS)]; format: functional; conditions: Homo sapiens
[13] = P. falciparum Dd2 growth inhibitors, dose response, SYBR Green, cherry-picked samples (AID 1159567); format: functional, cell-based
[14] = inhibitors of firefly luciferase expression or activity, dose response, H4 neuroglioma cells, luminescence (AID 1990); format: functional, cell-based
[15] = biological target: T2, RNA-binding protein pos-1 (Caenorhabditis elegans, UniProt G5EF15); test: inhibitors of POS-1/mex-3 RNA binding, dose response, biochemical, fluorescence polarization (AID 1964);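 note: purified POS-1 fused to maltose binding protein made in E. coli; potency of compounds blocking POS-1 binding to fluorescent RNA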
T2 sequence (G5EF15 whole entry): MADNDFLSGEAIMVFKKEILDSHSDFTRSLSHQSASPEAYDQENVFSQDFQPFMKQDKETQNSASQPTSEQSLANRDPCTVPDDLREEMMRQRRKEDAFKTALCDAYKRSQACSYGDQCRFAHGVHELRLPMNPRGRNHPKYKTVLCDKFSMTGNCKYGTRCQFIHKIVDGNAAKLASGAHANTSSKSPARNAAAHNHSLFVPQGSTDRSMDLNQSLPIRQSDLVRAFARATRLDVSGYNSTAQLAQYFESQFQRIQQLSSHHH

[16] = Luminescence Cell-Based Dose Response HTS to Identify Inhibitors of 5'UTR Stem-Loop Driven Prion Protein mRNA Translation in H4 Neuroglioblastoma Cells. [Related pubchem assays: 1827 (Project Summary), 1813 (Primary HTS)]; format: functional
[17] = biological target: T3, Zinc finger protein mex-5 (Caenorhabditis elegans, UniProt Q9XUB2); test: MEX-5/TCR-2 RNA interaction inhibitors, dose response, biochemical, C. elegans, fluorescence polarization (AID 1960)
T3 sequence (Q9XUB2 whole entry): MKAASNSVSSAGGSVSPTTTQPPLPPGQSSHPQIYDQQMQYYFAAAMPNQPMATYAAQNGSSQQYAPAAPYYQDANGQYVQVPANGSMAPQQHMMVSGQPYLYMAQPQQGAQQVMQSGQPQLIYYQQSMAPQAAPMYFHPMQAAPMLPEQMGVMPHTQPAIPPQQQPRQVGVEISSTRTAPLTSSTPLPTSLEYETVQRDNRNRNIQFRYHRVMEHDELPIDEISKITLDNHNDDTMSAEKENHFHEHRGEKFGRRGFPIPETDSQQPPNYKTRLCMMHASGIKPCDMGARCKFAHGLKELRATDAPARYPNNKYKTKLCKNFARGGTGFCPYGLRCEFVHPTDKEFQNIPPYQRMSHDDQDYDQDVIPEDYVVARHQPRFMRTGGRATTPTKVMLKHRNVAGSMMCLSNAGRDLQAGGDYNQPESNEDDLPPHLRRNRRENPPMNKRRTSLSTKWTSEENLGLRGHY

[18] = inhibitors of SNCA 5'UTR-driven reporter translation, confirmation, H4 neuroglioma cells, luminescence (AID 1988); format: functional, cell-based
[19] = growth suppression of PTEN-null colon cells, dose response, cell-based, HCT116 PTEN knockout (AID 1047); format: functional;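 note: HCT116 colon tumor cells with PTEN knocked out; cells exposed to compound for 60 hours before readout; potency for loss of cell viability measured by luminescence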
[20] = growth suppression of beta-catenin-knockout colon cells, dose response, cell-based, HCT116, human colon tumor (AID 1045); format: functional;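 note: HCT116 colon tumor cells with beta catenin knocked out; cells exposed to compound for 60 hours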
[21] = tested on: INS1; test: beta cell apoptosis inhibitors, cytokine rescue, dose response, luminescence, retest (AID 449756); format: functional, cell-based; conditions: Rattus norvegicus;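 note: cell death triggered by IL-1 beta plus TNF-alpha plus IFN-gamma mixture; protective hits raise ATP signal compared with cytokine alone wells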

Fatty acid synthase, sequence (P49327 whole entry, the tested form may be a part): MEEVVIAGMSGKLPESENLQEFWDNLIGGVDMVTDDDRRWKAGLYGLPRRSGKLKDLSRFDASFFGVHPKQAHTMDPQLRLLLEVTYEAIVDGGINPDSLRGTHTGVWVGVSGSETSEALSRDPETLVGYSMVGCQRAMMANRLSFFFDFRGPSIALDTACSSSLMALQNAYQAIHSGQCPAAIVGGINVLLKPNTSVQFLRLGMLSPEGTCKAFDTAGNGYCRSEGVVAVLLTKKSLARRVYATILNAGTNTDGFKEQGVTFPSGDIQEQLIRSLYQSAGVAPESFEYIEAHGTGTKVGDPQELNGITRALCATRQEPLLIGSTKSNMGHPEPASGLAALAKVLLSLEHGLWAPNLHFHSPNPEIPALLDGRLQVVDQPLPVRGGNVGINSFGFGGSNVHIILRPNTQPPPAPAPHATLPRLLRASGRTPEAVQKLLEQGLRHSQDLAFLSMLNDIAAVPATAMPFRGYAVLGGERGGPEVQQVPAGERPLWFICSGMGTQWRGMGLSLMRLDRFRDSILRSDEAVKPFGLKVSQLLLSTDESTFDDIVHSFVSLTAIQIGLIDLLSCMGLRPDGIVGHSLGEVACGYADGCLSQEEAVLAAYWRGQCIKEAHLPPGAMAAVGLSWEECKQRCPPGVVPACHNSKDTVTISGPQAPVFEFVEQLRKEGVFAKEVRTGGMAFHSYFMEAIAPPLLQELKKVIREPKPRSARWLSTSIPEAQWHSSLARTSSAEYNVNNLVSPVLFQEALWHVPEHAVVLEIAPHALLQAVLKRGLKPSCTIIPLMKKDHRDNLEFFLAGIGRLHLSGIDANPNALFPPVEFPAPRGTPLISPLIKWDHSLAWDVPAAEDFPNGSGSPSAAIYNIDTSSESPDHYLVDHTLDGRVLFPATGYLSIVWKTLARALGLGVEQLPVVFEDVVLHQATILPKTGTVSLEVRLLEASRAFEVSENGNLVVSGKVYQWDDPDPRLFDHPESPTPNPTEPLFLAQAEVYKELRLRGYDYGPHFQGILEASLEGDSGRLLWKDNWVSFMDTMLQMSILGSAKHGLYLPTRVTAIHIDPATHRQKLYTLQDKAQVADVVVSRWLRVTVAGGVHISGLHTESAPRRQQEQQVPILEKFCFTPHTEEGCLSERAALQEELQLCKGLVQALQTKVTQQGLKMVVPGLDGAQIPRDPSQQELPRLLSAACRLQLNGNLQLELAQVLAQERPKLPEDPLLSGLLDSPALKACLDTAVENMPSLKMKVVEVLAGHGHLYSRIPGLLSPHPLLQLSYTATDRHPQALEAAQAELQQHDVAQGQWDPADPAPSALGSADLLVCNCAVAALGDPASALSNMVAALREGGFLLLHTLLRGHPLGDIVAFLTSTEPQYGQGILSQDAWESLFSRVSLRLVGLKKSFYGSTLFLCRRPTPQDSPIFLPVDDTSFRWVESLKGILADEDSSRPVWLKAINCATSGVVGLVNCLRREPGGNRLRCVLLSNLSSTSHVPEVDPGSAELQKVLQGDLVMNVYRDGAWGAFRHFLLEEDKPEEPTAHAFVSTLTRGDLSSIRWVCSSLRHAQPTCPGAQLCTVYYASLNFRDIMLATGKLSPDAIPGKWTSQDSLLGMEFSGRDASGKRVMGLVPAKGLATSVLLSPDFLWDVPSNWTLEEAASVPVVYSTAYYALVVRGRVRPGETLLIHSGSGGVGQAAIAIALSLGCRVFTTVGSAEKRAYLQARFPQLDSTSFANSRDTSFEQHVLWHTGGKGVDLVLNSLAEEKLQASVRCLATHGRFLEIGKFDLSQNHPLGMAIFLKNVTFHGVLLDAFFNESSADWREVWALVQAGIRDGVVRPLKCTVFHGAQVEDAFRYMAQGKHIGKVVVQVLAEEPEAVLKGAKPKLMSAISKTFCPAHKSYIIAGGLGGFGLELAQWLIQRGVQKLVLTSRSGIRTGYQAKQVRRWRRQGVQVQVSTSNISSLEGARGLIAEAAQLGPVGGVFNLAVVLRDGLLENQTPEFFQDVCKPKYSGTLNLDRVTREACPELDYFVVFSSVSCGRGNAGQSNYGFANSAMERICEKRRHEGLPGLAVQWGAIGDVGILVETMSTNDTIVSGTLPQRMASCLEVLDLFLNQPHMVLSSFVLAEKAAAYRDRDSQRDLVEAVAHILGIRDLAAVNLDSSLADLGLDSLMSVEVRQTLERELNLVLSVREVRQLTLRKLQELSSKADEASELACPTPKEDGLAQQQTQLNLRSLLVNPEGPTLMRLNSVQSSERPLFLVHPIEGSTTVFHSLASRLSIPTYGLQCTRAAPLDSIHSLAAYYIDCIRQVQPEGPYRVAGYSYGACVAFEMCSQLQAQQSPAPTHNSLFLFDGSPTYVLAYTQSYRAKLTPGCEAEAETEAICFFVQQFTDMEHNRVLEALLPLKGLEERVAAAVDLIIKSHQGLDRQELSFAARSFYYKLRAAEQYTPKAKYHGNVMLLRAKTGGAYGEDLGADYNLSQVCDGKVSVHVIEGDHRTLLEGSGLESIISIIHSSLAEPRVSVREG

## COC(=O)C1C(O)C(C)C(O)OC1C(C)C(O)C(C)/C=C\C=C(/C)C(=O)Nc1c(C)c(OC(C)=O)c2c(c1O)C(=O)C(C)=C1OCOC(/C(C)=C/C(C)=O)=C12 (centres undefined)
[1]
  GI50: 13.2 µM (inactive)
[2]
  GI50: 13.3 µM (inactive)
[3]
  GI50: 1.93 µM (inactive)

## CCOC(=O)c1c(NC(=O)C2CCCCC2C(=O)O)sc2c1CCCCC2 (centres undefined)
[4]
  EC50: 5.96 µM (active)

## O=C(Nc1ccccc1)N(C1=NCCCCS1)c1cccc2ccccc12
[5]
  EC50: > 350 µM (not active)
[6]
  EC50: 43.7 µM (active)

## Fc1ccccc1COc1ccccc1CNCc1ccncc1
[7]
  EC50: 1.45 µM (active)
[8]
  EC50: > 60 µM (not active)
[4]
  EC50: 7.5 µM (active)

## CC(C)(C)c1ccc(N2C(=O)CC(C/C=C/c3ccccc3)C2=O)cc1 (centres undefined)
[5]
  EC50: > 350 µM (not active)
[6]
  EC50: > 350 µM (not active)

## O=Cc1c(Cn2ccnc2)c2cc([N+](=O)[O-])ccc2n1Cc1ccccc1
[1]
  GI50: 63 µM (inactive)
[2]
  GI50: 50.8 µM (inactive)
[3]
  GI50: 40.8 µM (inactive)

## CCN(CC)CCNc1ccc(CO)c2sc3ccccc3c(=O)c12 [HYCANTHONE MESYLATE]
[1]
  GI50: 7.35 µM (inactive)
[2]
  GI50: 7.43 µM (inactive)
[3]
  GI50: 2.94 µM (inactive)

## COC(=O)c1cc(C(=O)NC(C)C2CC3CCC2C3)cc([N+](=O)[O-])c1 (centres undefined)
[9]
  IC50: 11.5 µM (active)

## CCCNC(=O)c1cc(-c2ccco2)on1
[10]
  EC50: 13.7 µM (active)
[11]
  EC50: 59.3 µM (active)
[5]
  EC50: 10 µM (active)
[12]
  EC50: 50.4 µM (active)
[6]
  EC50: > 350 µM (not active)

## Cc1cccc2cc(CN(Cc3nnnn3Cc3ccccc3)C3CCCC3)c(O)nc12
[4]
  EC50: 0.149 µM (active)

## O=S(=O)(O)c1ccc(/N=N\c2ccc(/N=N\c3ccc(/C=C/c4ccc(/N=[N+](/[O-])c5ccc(/C=C/c6ccc(/N=N/c7ccc(/N=N\c8ccc(S(=O)(=O)O)cc8)cc7)cc6S(=O)(=O)O)c(S(=O)(=O)O)c5)cc4S(=O)(=O)O)c(S(=O)(=O)O)c3)cc2)cc1
[1]
  GI50: > 100 µM (inactive)
[2]
  GI50: > 100 µM (inactive)
[3]
  GI50: > 100 µM (inactive)

## COc1cccc(-c2cn(CC[C@@H]3CC[C@H](NS(=O)(=O)c4ccccc4Cl)[C@H](CO)O3)nn2)c1
[13]
  AC50: 7.33 µM (active)

## Cc1c(CN2CCC(n3nccc3NC(=O)CCc3ccccc3)CC2)cnn1C
[4]
  EC50: 0.421 µM (active)

## CCOc1c(Cl)cc(CNC(C)C(O)c2ccccc2)cc1OC (centres undefined)
[4]
  EC50: 1.33 µM (active)

## Cc1ccc(NC(=O)COc2ccc(/C=C3/S/C(=N/c4ccccc4)N(Cc4cccnc4)C3=O)cc2)cc1
[14]
  EC50: > 120 µM (not active)
[15]
  EC50: > 300 µM (not active)
[16]
  EC50: > 120 µM (not active)
[17]
  EC50: > 300 µM (not active)
[18]
  EC50: > 120 µM (not active)

## COc1cc(O)c2c(c1)C(=O)c1cc3c(c(O)c1C2=O)C(OC1OC(C)C(O)C(O)C1OC)C(OC)C(C)(O)C3=O (centres undefined)
[1]
  GI50: 7.59 µM (inactive)
[2]
  GI50: 2.42 µM (inactive)
[3]
  GI50: 5.66 µM (inactive)

## CC(OCC(O)CN(C)CCOc1ccccc1)c1ccc(Cl)cc1 (centres undefined)
[4]
  EC50: 3.76 µM (active)

## O=C(NC(Cc1ccc(I)cc1)C(=O)O)c1ccc(Cl)cc1 (centres undefined)
[1]
  GI50: 62.1 µM (inactive)
[2]
  GI50: > 100 µM (inactive)
[3]
  GI50: 72.4 µM (inactive)

## CC[C@@]1(O)C[C@H](OC2CC(N(C)C)C(O)C(C)O2)c2c(cc3c(c2O)C(=O)c2c(O)ccc(O)c2C3=O)[C@H]1C(=O)OC (some centres undefined)
[1]
  GI50: 0.0175 µM (active)
[2]
  GI50: 0.0328 µM (active)
[3]
  GI50: 0.0175 µM (active)

## COc1ccccc1CN1C[C@@H](C)[C@H](OC)CN(C)C(=O)c2cc(NC(=O)Nc3ccccc3OC)ccc2OC[C@H]1C
[13]
  AC50: 4.12 µM (active)

## Cc1ccc(C)c(N2CCN(CCCNC(=O)Cn3cc4c(n3)CCCCC4)CC2)c1
[19]
  EC50: 14.5 µM (active)
[20]
  EC50: 11.8 µM (active)

## C[C@@H]1CN([C@@H](C)CO)C(=O)c2cccc(NC(=O)C3CC3)c2O[C@H]1CN(C)Cc1ccc(-c2ccccc2)cc1
[13]
  AC50: 3.44 µM (active)

## CC(=O)Nc1cccc(NC(=O)CS(=O)(=O)c2cn(CC(=O)N3CCOCC3)c3ccccc23)c1
[5]
  EC50: > 350 µM (not active)
[6]
  EC50: > 350 µM (not active)

## O=C(O)c1cn2c3c(cc(N4CCN(CCO)CC4)cc3c1=O)SCC2
[1]
  GI50: > 100 µM (inactive)
[2]
  GI50: 40.5 µM (inactive)
[3]
  GI50: 61.5 µM (inactive)

## CC(=O)Nc1cccc(C(=O)/C=C/c2cccs2)c1
[19]
  EC50: 11.3 µM (active)
[20]
  EC50: 7.79 µM (active)

## N=c1c(S(=O)(=O)c2ccc(Cl)cc2)cc2c(=O)n3ccccc3nc2n1C1CCCC1
[14]
  EC50: 24.8 µM (active)
[15]
  EC50: 135 µM (active)
[16]
  EC50: > 120 µM (not active)
[17]
  EC50: 148 µM (inconclusive)
[18]
  EC50: 31.7 µM (active)
[7]
  EC50: 0.87 µM (active)
[8]
  EC50: 11.4 µM (active)

## CCCCCCCCCCCCCCCCNCC(O)CN (centres undefined)
[1]
  GI50: 2.05 µM (inactive)
[2]
  GI50: 1.77 µM (inactive)
[3]
  GI50: 1.95 µM (inactive)

## CCOC(=O)c1c(NC(=O)CCC(=O)O)sc2c1CCCCC2
[5]
  EC50: > 350 µM (not active)
[6]
  EC50: 24.5 µM (active)

## COc1cc(C(=O)Nc2nc(-c3ccc(Cl)cc3)c(C)s2)ccc1OCC(=O)Nc1ccc(F)cc1
[19]
  EC50: 1.92 µM (active)
[20]
  EC50: 1.46 µM (active)

## Cc1cccc(NC(=O)Nc2cccc(Oc3c(F)c(F)c(F)c(F)c3F)c2)c1
[7]
  EC50: 3.06 µM (active)
[19]
  EC50: 17.3 µM (active)
[8]
  EC50: 7.63 µM (active)
[20]
  EC50: 24.5 µM (active)
[21]
  AC50: 4.92 µM (active)

## CCN(CCCCCN(C)C)Cc1cc2ccccc2o1
[5]
  EC50: > 350 µM (not active)
[6]
  EC50: > 350 µM (not active)

## Cc1cc(C)cc(C(=O)NC(=S)Nc2ccc(-c3cc4ccccc4oc3=O)cc2)c1
[19]
  EC50: 11.7 µM (active)
[20]
  EC50: 12.4 µM (active)
